Experimental data as given in patent US20220117938A1, “COMBINATON THERAPY WITH A DON PRODRUG AND AN IMMUNE CHECKPOINT INHIBITOR” (DRACEN PHARMACEUTICALS, INC., priority 2019, published 2022).

Test system: Ninety four (94) cell lines and PBMC
Assay: Cell viability assay, SRB staining, 94 cell lines and PBMC (Example 7, Experiment 2)
Assay type: cell-based
Protocol: Ninety four (94) cell lines were seeded at a density varying from 500 to 7000 cells/well depending on their growth characteristics. PBMC were seeded at the density 50,000-100,000 cells/well. Cells were incubated for 48 h prior to compound treatment. Compound 1 and DON were evaluated at a concertation range of 1 nM up to 100 μM. Compound 1 dilutions in DMSO and DON dilutions in PBS were performed in 96-well 0.5 mL plates (Greiner Bio-One, Germany). Compounds were then diluted 1:100 in RPMI medium. […] of cells were treated by mixing with 10 μL of the compound-containing media (resulting in a final DMSO concentration of 0.1%). The cells were allowed to grow at 37° C. for 120 h. Cells were fixed to the surface by addition of 10% TCA (for adherent growing cells) or 50% TCA (for semi-adherent growing cells or cells growing in suspension). After an hour of incubation at 4° C., plates were washed twice with 400 μL of deionized water and dried. Cells were then stained with 100 μL of 0.04% wt/v SRB. The plates were incubated at room temperature for at least 30 min and washed six times with 1% acetic acid to remove unbound stain. The plates were left to dry at room temperature and bound SRB was solubilized with 100 μL of 10 mM Tris base. Optical density was measured at 492, 520 and 560 nm using a Deelux-LED96 plate reader (Deelux Labortechnik GmbH, Germany).
Cell lines were purchased directly from the ATCC, NCI, CLS, and DSMZ cell line collections. A master bank and working aliquots were prepared. Cells used for the study had undergone less than 20 passages. To rule out potential contamination or wrong assignment, all cell lines were tested by STR analysis. Absence of mycoplasma contamination was confirmed for all cell lines used in the studies.
The cell lines were grown in the media recommended by the suppliers in the presence of 100 U/mL penicillin and 100 μg/mL streptomycin supplied with 10% FCS (PAA, Germany). RPMI 1640, DMEM, and MEM Earle's medium were from PAA (Coelbe, Germany), supplements 2 mM L-glutamine, 1 mM Na-pyruvate and 1% NEAA were from PAA (Coelbe, Germany), 2.5% horse serum, hydrocortisone, transferin, beta-estradiol, selenite and 1 U/mL insulin from Sigma-Aldrich (Munich, Germany). RPMI medium was used for culturing the following cell lines: 5637, 22RV1, 7860, A2780, A431, A549, ACHN, ASPC1, BT20, BXPC3, CAKI1, CLS439, COLO205, COLO678, DLD1, DU145, EFO21, EJ28, HCT15, HS578T, IGROV1, JAR, LOVO, MCF7, MDA MB231, MDA MB435, MDA MB436, MDA MB468, MHHES1, MT3, NCI H292, NCI H358M, NCI H460, NCIH82, OVCAR3, OVCAR4, PANC 1005 (addition of insulin), PBMC, PC3, RDES, SF268, SF295, SKBR3, SK MEL28, SKMEL5, SKOV3, SW620, U2OS, UMUC3, and U031.
DMEM medium was used to culture A204, A375, A673, C33A, CASKI, HCT116, HEPG2, HS729, HT29, J82, MG63, MIAPACA2 (addition of horse serum), PANC1, PLCPRF5, RD, SAOS2, SKLMS1, SKNAS, SNB75, T24, and TE671.
MEM Earle's medium was used for CACO2, CALU6, HEK293, HELA, HT1080, IMR90, JEG3, JIMT1, SKHEP1, SKNSH, and U87MG. Cell seeding conditions were optimized for each cell line. The cell seeding density varied from 500 to 7000 cells/well depending on their growth characteristics. Peripheral blood mononuclear cells (PBMC) were freshly isolated from whole blood of an anonymous donor through density gradient centrifugation using Ficoll solution (d=1.077). In short, blood was diluted 1:1 with PBS and carefully placed on the Ficoll. After centrifugation 1000×g for 15 min (braking rate 0), the ring containing mainly leucocytes was collected in PBS followed by three times washing with PBS to reduce the platelets. PBMC were seeded at the density 50,000-100,000 cells/well. Cells were grown in 5% CO2 atmosphere in a NB-203XXL incubator (N-BIOTEK Inc., Korea).
Ninety-four cell lines were tested in parallel. Cell growth and treatment were performed in 96 well microtitre plates CELLSTAR® (Greiner Bio-One, Germany). […]

[1] = Homo sapiens, MDA-MB-468, MDAMB468, breast
[2] = Homo sapiens, MG-63, MG63, bone
[3] = Homo sapiens, MHH-ES-1, MHHES1, bone
[4] = Homo sapiens, MIA PaCa-2, MIAPACA2, pancreas
[5] = Homo sapiens, MINO, hematological
[6] = Homo sapiens, MV4-11, MV4-11, hematological
[7] = Homo sapiens, NCI-H292, NCIH292, lung
[8] = Homo sapiens, NCI-H460, NCIH460, lung
[9] = Homo sapiens, OVCAR-3, OVCAR3, ovary
[10] = Homo sapiens, OVCAR-4, OVCAR4, ovary
[11] = Homo sapiens, PANC-1, PANC1, pancreas
[12] = Homo sapiens, PLC-PRF-5, PLCPRF5, liver
[13] = Homo sapiens, Panc1005, PANC1005, pancreas
[14] = Homo sapiens, SAOS-2, SAOS2, bone
[15] = Homo sapiens, SF-268, SF268, brain
[16] = Homo sapiens, SF-295, SF295, brain
[17] = Homo sapiens, SK-BR-3, SKBR3, breast
[18] = Homo sapiens, SK-HEP1, SKHEP1, liver
[19] = Homo sapiens, SK-LMS-1, SKLMS1, uterus
[20] = Homo sapiens, SK-MEL-5, SKMEL5, skin
[21] = Homo sapiens, SK-MEL-28, SKMEL28, skin
[22] = Homo sapiens, SK-N-SH, SKNSH, brain
[23] = Homo sapiens, SK-OV-3, SKOV3, ovary
[24] = Homo sapiens, SU-DHL-6, SU-DHL-6, hematological
[25] = Homo sapiens, SW-620, SW620, colon
[26] = Homo sapiens, TE-671, TE671, muscle
[27] = Homo sapiens, THP-1, THP-1, hematological
[28] = Homo sapiens, U-87 MG, U87MG, brain
[29] = Homo sapiens, UMUC3, UMUC3, bladder
[30] = Homo sapiens, UO-31, UO31, kidney
[31] = Homo sapiens, WSU-NHL, hematological

SMILES: [N-]=[N+]=CC(=O)CC[C@H](N)C(=O)O [DON, 6-Diazo-5-oxo-L-norleucine, reference compound]
- IC50 (Homo sapiens, MDA-MB-436, MDAMB436, breast): 19.8 µM
- GI50 [1]: 0.427 µM
- IC50 [1]: 0.599 µM
- GI50 [2]: 4.61 µM
- IC50 [2]: 5.3 µM
- GI50 [3]: 1.85 µM
- IC50 [3]: 2 µM
- GI50 [4]: 3.32 µM
- IC50 [4]: 3.58 µM
- GI50 [5]: 0.497 µM
- IC50 [5]: 0.633 µM
- GI50 [6]: 1.22 µM
- IC50 [6]: 1.4 µM
- GI50 [7]: 5.72 µM
- IC50 [7]: 53.1 µM
- GI50 [8]: 4.11 µM
- IC50 [8]: 4.31 µM
- GI50 [9]: 0.889 µM
- IC50 [9]: 2.3 µM
- GI50 [10]: 0.651 µM
- IC50 [10]: 0.752 µM
- GI50 [11]: 12.3 µM
- IC50 [11]: 13.2 µM
- GI50 [12]: 6.53 µM
- IC50 [12]: 8.04 µM
- GI50 [13]: 4.17 µM
- IC50 [13]: 8.6 µM
- GI50 (Homo sapiens, Ramos, hematological): 0.672 µM
- GI50 [14]: 6.36 µM
- IC50 [14]: 33.2 µM
- GI50 [15]: 6.32 µM
- IC50 [15]: 7.43 µM
- GI50 [16]: 4.71 µM
- IC50 [16]: 5.23 µM
- GI50 [17]: 2.14 µM
- IC50 [17]: 3.21 µM
- GI50 [18]: 1.79 µM
- IC50 [18]: 2.62 µM
- GI50 [19]: 1.66 µM
- IC50 [19]: 2.3 µM
- GI50 [20]: 2.19 µM
- IC50 [20]: 3.02 µM
- GI50 [21]: 1.69 µM
- IC50 [21]: 2.19 µM
- GI50 (Homo sapiens, SK-N-AS, SKNAS, brain): 12.6 µM
- GI50 [22]: 5.04 µM
- IC50 [22]: 7.11 µM
- GI50 [23]: 0.769 µM
- IC50 [23]: 1.21 µM
- GI50 (Homo sapiens, SNB-75, SNB75, brain): 15.5 µM
- GI50 (Homo sapiens, SU-DHL10, SU-DHL-10, hematological): 8.42 µM
- GI50 [24]: 0.623 µM
- IC50 [24]: 0.761 µM
- GI50 [25]: 5.38 µM
- IC50 [25]: 6.25 µM
- GI50 [26]: 4.63 µM
- IC50 [26]: 5.1 µM
- GI50 [27]: 1.02 µM
- IC50 [27]: 1.09 µM
- GI50 (Homo sapiens, U2OS, bone): 5.91 µM
- IC50 (Homo sapiens, U2OS, bone): 8.4 µM
- GI50 [28]: 10.5 µM
- IC50 [28]: 11.3 µM
- GI50 [29]: 2.23 µM
- IC50 [29]: 2.76 µM
- GI50 [30]: 0.981 µM
- IC50 [30]: 18.6 µM
- GI50 [31]: 0.796 µM
- IC50 [31]: 0.639 µM
- IC50 (J82, bladder): 28.9 µM
- IC50 (JAR, placenta): 3.04 µM
- IC50 (MT3, breast): 0.791 µM
- GI50 (NCI-H358M, NCIH358M, lung): 1.61 µM
- IC50 (NCI-H358M, NCIH358M, lung): 4.98 µM
- GI50 (PBMC, 5637, bladder): 0.796 µM
- GI50 (PBMC, CLS439, bladder): 6.87 µM
- GI50 (PBMC, HS729, muscle): 7.42 µM
- GI50 (PBMC, J82, bladder): 23.2 µM
- GI50 (PBMC, JAR, placenta): 2.81 µM
- GI50 (PBMC, MT3, breast): 0.638 µM
- GI50 (PBMC, PC3, prostate): 8.37 µM
- GI50 (PBMC, RD, muscle): 6.79 µM
- GI50 (PBMC, T24, bladder): 3.86 µM
- IC50 (PC3, prostate): 11.7 µM
- IC50 (RD, muscle): 9.13 µM
- GI50 (RD-ES, RDES, bone): 1.96 µM
- IC50 (RD-ES, RDES, bone): 3.18 µM
- IC50 (T24, bladder): 4 µM
